Test results as given in the METLIN SMRT retention time set (Domingo-Almenara et al. 2019).

Experiment: gradient 5% acetonitrile 3 min, to 50% in 2 min, to 85% in 15 min, held 3 min, 100 µL/min
Conditions: column: Zorbax Extend-C18 2.1 x 50 mm; eluents: water / acetonitrile, 0.1% formic acid
Summary of the method: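 Values are retention times taken from adduct peaks that software picked and an analyst inspected. The pure standards were run as mixtures of ~100 molecules on HPLC linked to a quadrupole time-of-flight mass spectrometer, in positive and negative ionization mode. A Zorbax Extend-C18 column (2.1 × 50 mm, 1.8 μm) was used at 100 μL/min with water and acetonitrile, each including 0.1% formic acid.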

SMILES	RP-LC retention time [s]
O=C(NCc1ccc(S(=O)(=O)c2cc(F)cc(F)c2)cc1)c1ccc2nccn2c1	724
O=C(NCc1n[nH]c(=O)c2ccccc12)C(=O)N1CCCCC1	603
Cc1cccc(-c2nn3c(c2-c2ccnc4ccc(C(N)=O)cc24)CCC3)n1	612
CC(=O)c1cccc(NC(=O)Cn2c(=O)nc(NC3CCCC3)c3ccccc32)c1	682
COc1cccc(N2C(=O)Nc3ccccc3C2(O)C(=O)N2CCN(c3ccccn3)CC2)c1 (stereo not given)	603
Cc1nc(C2CCOCC2)n(C2CCN(S(=O)(=O)c3c(C)c(C)cc(C)c3C)C2)n1 (stereo not given)	874
CCCn1cc(CCNS(=O)(=O)c2ccc(F)c(Cl)c2)c2cccnc21	931
CN(C)c1ccc(-c2nc3cnc(Br)cn3c2Nc2ccc3c(c2)OCO3)cc1	894
CCc1nc2ccc(-c3noc(-c4ccc(C#N)cc4)n3)cc2n1CC	716
CCc1ccccc1NC(=O)N1CCCC1c1nc(-c2ccc(OC)cc2)no1 (stereo not given)	976
O=C1C(c2cccnc2)N(Cc2cccs2)C(=O)CN1c1ccccc1 (stereo not given)	661
Cc1ccc(-c2cc3c(=O)n(CC(O)c4ccccc4)ccn3n2)c(C)c1 (stereo not given)	982
CCOc1ccccc1NC(=O)CN1CCN(c2nccn2-c2ccc(C)cc2)CC1	612
COc1cc(=O)c(C(=O)NC(C)C)nn1-c1ccc(C)cc1	694
COc1ccc(NC(=O)c2cc(C(C)C)n(C3CCS(=O)(=O)C3)n2)cc1Cl (stereo not given)	931
CCC(C)C(NC(=O)c1cccs1)C(=O)Nc1nc2ccccc2[nH]1 (stereo not given)	692
Cc1cccc2nnc(N3CCN(C(=O)c4cc(F)cc(F)c4)CC3)n12	669
CCC(C)NC(=O)Cn1c(=O)n(CCCCC(=O)NC2CCCC2)c(=O)c2ccccc21 (stereo not given)	736
CCN(Cc1ccccc1)C(=O)CN1C(=O)CCCc2cc(S(=O)(=O)N3CCOCC3)ccc21	825
CCOCCCNC(=O)c1ccc(OCc2nnc(C(=O)Nc3ccccc3F)s2)cc1	853
O=C(Cn1c(=O)c2cccn2c2ccccc21)NCCCN1CCCC1	593
O=C(C1=CN(c2cc(Cl)cc(Cl)c2)c2cc(F)ccc2S1(=O)=O)N1CCOCC1	875
Cc1nnc(-c2cn(CC(=O)Nc3ccc(Br)cc3)c3ccccc23)o1	888

SMILES	RP-LC retention time [s]
COc1cc(CC(=O)N2CCN(c3cc(C)n4c(C)nnc4n3)CC2)cc(OC)c1	576
COc1ccc(-c2noc(Cc3nnc(-c4ccc(C)c(F)c4)o3)n2)cc1OC	996
Cc1ccc(S(=O)(=O)N2CCCCCC2c2nnc(C)o2)c(C)c1 (stereo not given)	862
Cc1ccc(-c2nnc(-c3cccc(S(=O)(=O)NCc4cccnc4)c3)o2)cc1	696
CCN1CCn2cc(S(=O)(=O)Nc3ccc(C)cc3C)cc2C1=O	746
O=C(CN1C(=O)CSc2ccc(C(=O)N3CCCCC3)cc21)NCCCN1CCCCC1	610
Cc1ccccc1Cn1c(CN2CCC(C(=O)NC3CCCCCC3)CC2)cc2ccccc21	885
Cc1ccc(NC(=O)Cn2c(N3CCc4ccccc4C3)nc(C)cc2=O)cc1	810
Cn1c(-c2cccc(C(=O)NCc3ccc(F)cc3F)c2)nc2cccnc21	743
Cc1ccc(NC(=O)C2CCN(C(=O)c3ncn4c3COC(c3ccc(F)cc3)C4)CC2)cc1 (stereo not given)	804
Cc1ccc(-c2csc(NC(=O)CCc3nc(CSc4nc5ccccc5o4)no3)n2)cc1	1130
CC(=O)N(C1CCOCC1)C1CCN(S(=O)(=O)c2cc(F)ccc2C)CC1	792
CCN1CCCn2nc(C3CCN(S(=O)(=O)c4ccc(F)cc4)CC3)cc2C1=O	761
O=C(NCc1ccc(F)c(Cl)c1)c1cn2c(n1)CCCC2	628
COc1cccc(NC(=O)C2CCCN(c3ncnc4oc(C)c(C)c34)C2)c1 (stereo not given)	891
CCN(c1ccc(F)cc1)S(=O)(=O)c1cc2n(c1)CCCNC2=O	721
FC(F)(F)c1ccc(Nc2nc3ccc(Oc4ccnc(-c5ncc(C(F)(F)F)[nH]5)c4)cc3[nH]2)cc1	844
CCNC(=O)N1CCOc2ccc(N(C)C)cc2C1	548
COc1ccc(NC2=NC(C)(CO)CS2)cc1 (stereo not given)	638
CC(C)OC(=O)Cn1nc2ccc(S(=O)(=O)N3CCSCC3)cn2c1=O	829
CCCn1cc(CCNS(=O)(=O)c2ccccc2C)c2cccnc21	830
COc1ccc(CN2C(=O)c3ccccc3C2C(=O)NCC2CCCO2)c(OC)c1 (stereo not given)	695
